# Assay results from PubChem BioAssay AID1963961 (Molecular Pharmacology Branch, DTP, NCI, 2024).
# Several values for one entry are separate records, joined by “and”; a condition that tells them apart may be missing. Equal values may be shown once.
# Test system: K98450-129-R-PDC multicell spheroids, viability
# Assay: Anticancer human tumor K98450-129-R-PDC patient-derived colon adenocarcinoma cell line growth inhibition [PI3K]
# Settings: for viability, T/C: stronger effect = lower value
# From the text: Combinatorial screen of targeted agents with the PI3K inhibitors inavolisib, alpelisib, duvelisib, and copanlisib in multi-cell type tumor spheroids
# A high-throughput screen of multi-cell type tumor spheroids was designed to identify active combinations of targeted small molecules and PI3K pathway inhibitors. Complex spheroids include a stromal component modeled by human endothelial cells (HUVEC) and fibroblasts modeled by human mesenchymal stem cells (MSCs). The concentration ranges selected for each drug and investigational agent were based upon clinically achievable concentrations if the clinical Cmax of the agent was known.
# Compounds. The drugs and investigational agents: inavolisib (NSC800729), alpelisib (NSC765974), duvelisib (NSC772469), copanlisib (NSC816437), ipatasertib (NSC767898), afuresertib (NSC778305), talazoparib (NSC767125), sapanisertib (NSC764658), selumetinib (NSC741078), tovorafenib (DAY101, NSC766906), vemurafenib (NSC761431), ravoxertinib (NSC781343), sotorasib (NSC818433), MRTX1133 (NSC 836407), abemaciclib (NSC 768073), palbociclib (NSC758247), venetoclax (NSC 766270), SY5609 (NSC837396), enzalutamide (NSC755605), and darolutamide (NSC825331), were obtained from the National Cancer Institute (NCI) Developmental Therapeutics Program Chemical Repository. The FDA-approved anticancer drug set is available from the NCI Developmental Therapeutics Program. […] The stock solutions were prepared in dimethyl sulfoxide (DMSO, Sigma-Aldrich, St. Louis, MO, cat. D2650) at 800-fold the tested concentration and stored at -70 degrees C prior to their use. All drugs and investigational agents were tested over a range starting from a high concentration at or near the clinical Cmax and decreasing in half-log increments. If the clinical Cmax for an agent had not been determined, the highest concentration tested was 10 microM.
# Cell Culture. All cells were maintained in an incubator at 37 degrees C and 5% CO2 with 95% humidity. The PDC lines were cultured according to standard operating procedures established by the NCI PDMR (https://pdmr.cancer.gov/sops/default.htm). All PDCs were thawed and cultured in Matrigel-coated flasks prepared with a working solution of 1X Ham's F-12 nutrient mix, without supplementation (Invitrogen, Waltham, MA, cat. 11765054), 100 U/mL penicillin-streptomycin (Invitrogen, cat. 15140122), and 2.5% Matrigel (Corning Inc., Corning, NY, cat. 354248) for the first three passages. The 354836-022-R-J1-PDC, 475296-252-R-J1-PDC, and 997726-040-R-J2-PDC lines were cultured in 6A media, which includes advanced DMEM/F-12 (Thermo Fisher Scientific, cat. 12634028), 10 mM HEPES (Thermo Fisher Scientific, cat. 15630080), 1X GlutaMAX supplement (Thermo Fisher Scientific, cat. 35050061), 0.1 mg/mL primocin (InvivoGen, San Diego, CA, cat. ant-pm-2), 10% defined fetal bovine serum, heat inactivated (HyClone Laboratories Inc., Logan, UT, cat. SH30070.03HI), 50% L-WRN conditioned media (ATCC, cat. CRL-3276), 1.25 mM N-Acetyl-L-cysteine (Sigma-Aldrich, cat. A9165), 10 mM nicotinamide (Sigma-Aldrich, cat. N0636), 1X B-27 supplement (Thermo Fisher Scientific, cat. 17504044), 1X N-2 supplement (Thermo Fisher Scientific, cat. 17502048), and 10 microM Y-27632 dihydrochloride (Tocris Bioscience, Bristol, United Kingdom, cat. 1254). The 624824-186-R-J2-PDC line was cultured in 6C/Colon 1B media, which includes all 6A media components plus 50 ng/mL human EGF recombinant protein (Thermo Fisher Scientific, cat. PHG0311). […]
# [1] = curve of first compound, second compound 0.0316 µM
# [2] = curve of first compound, second compound 0.1 µM
# [3] = curve of first compound, second compound 0.316 µM
# [4] = curve of first compound, second compound 1 µM
# [5] = second compound 0.0316 µM, first compound 0.0316 µM
# [6] = second compound 0.0316 µM, first compound 0.1 µM
# [7] = second compound 0.0316 µM, first compound 0.316 µM
# [8] = second compound 0.0316 µM, first compound 1 µM
# [9] = second compound 0.0316 µM, first compound 3.16 µM
# [10] = second compound 0.0316 µM, first compound 10 µM
# [11] = second compound 0.1 µM, first compound 0.0316 µM
# [12] = second compound 0.1 µM, first compound 0.1 µM
# [13] = second compound 0.1 µM, first compound 0.316 µM
# [14] = second compound 0.1 µM, first compound 1 µM
# [15] = second compound 0.1 µM, first compound 3.16 µM
# [16] = second compound 0.1 µM, first compound 10 µM
# [17] = second compound 0.316 µM, first compound 0.0316 µM
# [18] = second compound 0.316 µM, first compound 0.1 µM
# [19] = second compound 0.316 µM, first compound 0.316 µM
# [20] = second compound 0.316 µM, first compound 1 µM
# [21] = second compound 0.316 µM, first compound 3.16 µM
# [22] = second compound 0.316 µM, first compound 10 µM
# [23] = second compound 1 µM, first compound 0.0316 µM
# [24] = second compound 1 µM, first compound 0.1 µM
# [25] = second compound 1 µM, first compound 0.316 µM
# [26] = second compound 1 µM, first compound 1 µM
# [27] = second compound 1 µM, first compound 3.16 µM
# [28] = second compound 1 µM, first compound 10 µM
# [29] = curve of first compound, second compound 0.00316 µM
# [30] = curve of first compound, second compound 0.01 µM
# [31] = second compound 0.00316 µM, first compound 0.0316 µM
# [32] = second compound 0.00316 µM, first compound 0.1 µM
# [33] = second compound 0.00316 µM, first compound 0.316 µM
# [34] = second compound 0.00316 µM, first compound 1 µM
# [35] = second compound 0.00316 µM, first compound 3.16 µM
# [36] = second compound 0.00316 µM, first compound 10 µM
# [37] = second compound 0.01 µM, first compound 0.0316 µM
# [38] = second compound 0.01 µM, first compound 0.1 µM
# [39] = second compound 0.01 µM, first compound 0.316 µM
# [40] = second compound 0.01 µM, first compound 1 µM
# [41] = second compound 0.01 µM, first compound 3.16 µM
# [42] = second compound 0.01 µM, first compound 10 µM
# 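Further: spheroids exposed to agents for seven days before read-out.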
smiles,measurement,setting,value
CC(C)NCC(C(=O)N1CCN(c2ncnc3c2C(C)CC3O)CC1)c1ccc(Cl)cc1 (stereo not given) + CC(Nc1ncnc2nc[nH]c12)c1cc2cccc(Cl)c2c(=O)n1-c1ccccc1,IC50,[1],> 10 µM
same,IC50,[2],> 10 µM
same,IC50,[3],> 10 µM
same,IC50,[4],> 10 µM
same,IC50,"curve of first compound, second compound 3.16 µM",> 10 µM
same,IC50,"curve of first compound, second compound 10 µM",> 10 µM
same,"viability, T/C",[5],98.2%
same,"viability, T/C",[6],107%
same,"viability, T/C",[7],101%
same,"viability, T/C",[8],96.4%
same,"viability, T/C",[9],102%
same,"viability, T/C",[10],98.5%
same,"viability, T/C",[11],111%
same,"viability, T/C",[12],115%
same,"viability, T/C",[13],99.3%
same,"viability, T/C",[14],89.6%
same,"viability, T/C",[15],94.9%
same,"viability, T/C",[16],83.4%
same,"viability, T/C",[17],96.6%
same,"viability, T/C",[18],97.2%
same,"viability, T/C",[19],87.1%
same,"viability, T/C",[20],105%
same,"viability, T/C",[21],105%
same,"viability, T/C",[22],102%
same,"viability, T/C",[23],106%
same,"viability, T/C",[24],100%
same,"viability, T/C",[25],104%
same,"viability, T/C",[26],98.4%
same,"viability, T/C",[27],115%
same,"viability, T/C",[28],101%
same,"viability, T/C","second compound 3.16 µM, first compound 0.0316 µM",79.2%
same,"viability, T/C","second compound 3.16 µM, first compound 0.1 µM",88.4%
same,"viability, T/C","second compound 3.16 µM, first compound 0.316 µM",101%
same,"viability, T/C","second compound 3.16 µM, first compound 1 µM",99.2%
same,"viability, T/C","second compound 3.16 µM, first compound 3.16 µM",97.5%
same,"viability, T/C","second compound 3.16 µM, first compound 10 µM",85.7%
same,"viability, T/C","second compound 10 µM, first compound 0.0316 µM",110%
same,"viability, T/C","second compound 10 µM, first compound 0.1 µM",89.5%
same,"viability, T/C","second compound 10 µM, first compound 0.316 µM",77.5%
same,"viability, T/C","second compound 10 µM, first compound 1 µM",88.6%
same,"viability, T/C","second compound 10 µM, first compound 3.16 µM",103%
same,"viability, T/C","second compound 10 µM, first compound 10 µM",87.2%
CNC(=O)c1ccc(N2C(=S)N(c3ccc(C#N)c(C(F)(F)F)c3)C(=O)C2(C)C)cc1F + COc1c(OCCCN2CCOCC2)ccc2c3n(c(=NC(=O)c4cnc(N)nc4)nc12)CCN3,IC50,[29],> 10 µM
same,IC50,[30],> 10 µM
same,IC50,[1],> 10 µM
same,IC50,[2],> 10 µM
same,IC50,[3],> 10 µM
same,IC50,[4],> 10 µM
same,"viability, T/C",[31],108%
same,"viability, T/C",[32],102%
same,"viability, T/C",[33],88.7%
same,"viability, T/C",[34],97.1%
same,"viability, T/C",[35],108%
same,"viability, T/C",[36],101%
same,"viability, T/C",[37],98.6%
same,"viability, T/C",[38],107%
same,"viability, T/C",[39],80.1%
same,"viability, T/C",[40],77.8%
same,"viability, T/C",[41],100%
same,"viability, T/C",[42],98.8%
same,"viability, T/C",[5],96.4%
same,"viability, T/C",[6],96.9%
same,"viability, T/C",[7],84.4%
same,"viability, T/C",[8],81.5%
same,"viability, T/C",[9],95.7%
same,"viability, T/C",[10],68.1%
same,"viability, T/C",[11],67.1%
same,"viability, T/C",[12],83.2%
same,"viability, T/C",[13],72.6%
same,"viability, T/C",[14],77%
same,"viability, T/C",[15],78.7%
same,"viability, T/C",[16],70.1%
same,"viability, T/C",[17],67.4%
same,"viability, T/C",[18],65.6%
same,"viability, T/C",[19],73.5%
same,"viability, T/C",[20],58.5%
same,"viability, T/C",[21],79.1%
same,"viability, T/C",[22],39.8%
same,"viability, T/C",[23],43.6%
same,"viability, T/C",[24],58.4%
same,"viability, T/C",[25],54.2%
same,"viability, T/C",[26],50.1%
same,"viability, T/C",[27],57.2%
same,"viability, T/C",[28],65.5%
CC(Nc1ccc2c(c1)OCCn1cc(N3C(=O)OCC3C(F)F)nc1-2)C(N)=O (stereo not given),"viability, T/C",compound 0.00316 µM,107% [middle of 8 runs]
same,"viability, T/C",compound 0.01 µM,106% [middle of 8 runs]
same,"viability, T/C",compound 0.0316 µM,106% [middle of 8 runs]
same,"viability, T/C",compound 0.1 µM,105% [middle of 8 runs]
same,"viability, T/C",compound 0.316 µM,105% [middle of 8 runs]
same,"viability, T/C",compound 1 µM,92.3% [middle of 8 runs]
same,IC50,"compound alone, run of 04/24/2023",> 1 µM
CNC(=O)c1ccc(N2C(=S)N(c3ccc(C#N)c(C(F)(F)F)c3)C(=O)C2(C)C)cc1F + CC(Nc1ccc2c(c1)OCCn1cc(N3C(=O)OCC3C(F)F)nc1-2)C(N)=O,IC50,[29],> 10 µM
same,IC50,[30],> 10 µM
same,IC50,[1],> 10 µM
same,IC50,[2],> 10 µM
same,IC50,[3],> 10 µM
same,IC50,[4],> 10 µM
same,"viability, T/C",[31],108%
same,"viability, T/C",[32],102%
same,"viability, T/C",[33],107%
same,"viability, T/C",[34],107%
same,"viability, T/C",[35],110%
same,"viability, T/C",[36],120%
same,"viability, T/C",[37],115%
same,"viability, T/C",[38],100%
same,"viability, T/C",[39],107%
same,"viability, T/C",[40],101%
same,"viability, T/C",[41],108%
same,"viability, T/C",[42],117%
same,"viability, T/C",[5],106%
same,"viability, T/C",[6],101%
same,"viability, T/C",[7],94.5%
same,"viability, T/C",[8],103%
same,"viability, T/C",[9],112%
same,"viability, T/C",[10],112%
same,"viability, T/C",[11],94.1%
same,"viability, T/C",[12],93.9%
same,"viability, T/C",[13],103%
same,"viability, T/C",[14],98.2%
same,"viability, T/C",[15],105%
same,"viability, T/C",[16],110%
same,"viability, T/C",[17],94.7%
same,"viability, T/C",[18],96.8%
same,"viability, T/C",[19],99.6%
same,"viability, T/C",[20],96.8%
same,"viability, T/C",[21],102%
same,"viability, T/C",[22],102%
same,"viability, T/C",[23],83.9%
same,"viability, T/C",[24],100%
same,"viability, T/C",[25],94.9%
same,"viability, T/C",[26],92.1%
same,"viability, T/C",[27],98.6%
same,"viability, T/C",[28],106%
CC(C)NCC(C(=O)N1CCN(c2ncnc3c2C(C)CC3O)CC1)c1ccc(Cl)cc1 (stereo not given),"viability, T/C",compound 0.0316 µM,94.2% and 100% and 107% (2×)
same,"viability, T/C",compound 0.1 µM,100% (2×) and 93.4% and 105%
same,"viability, T/C",compound 0.316 µM,105% [middle of 4 runs]
same,"viability, T/C",compound 1 µM,106% (2×) and 92.7% and 87.9%
same,"viability, T/C",compound 3.16 µM,93% [middle of 4 runs]
same,"viability, T/C",compound 10 µM,99.5% and 102% (2×) and 99.9%
same,IC50,curve of compound,> 10 µM
